Values of other authors in patent publication US6355670B1, “Use of estrogen antagonists and estrogen agonists in inhibiting pathological conditions” (Pfizer, Inc., priority 1996, dated 2002).

Tests used:
estrogen receptor = target: T1, estrogen receptor (Homo sapiens, UniProt P03372); settings: higher, relative to tamoxifen
T1 sequence (P03372 1-595): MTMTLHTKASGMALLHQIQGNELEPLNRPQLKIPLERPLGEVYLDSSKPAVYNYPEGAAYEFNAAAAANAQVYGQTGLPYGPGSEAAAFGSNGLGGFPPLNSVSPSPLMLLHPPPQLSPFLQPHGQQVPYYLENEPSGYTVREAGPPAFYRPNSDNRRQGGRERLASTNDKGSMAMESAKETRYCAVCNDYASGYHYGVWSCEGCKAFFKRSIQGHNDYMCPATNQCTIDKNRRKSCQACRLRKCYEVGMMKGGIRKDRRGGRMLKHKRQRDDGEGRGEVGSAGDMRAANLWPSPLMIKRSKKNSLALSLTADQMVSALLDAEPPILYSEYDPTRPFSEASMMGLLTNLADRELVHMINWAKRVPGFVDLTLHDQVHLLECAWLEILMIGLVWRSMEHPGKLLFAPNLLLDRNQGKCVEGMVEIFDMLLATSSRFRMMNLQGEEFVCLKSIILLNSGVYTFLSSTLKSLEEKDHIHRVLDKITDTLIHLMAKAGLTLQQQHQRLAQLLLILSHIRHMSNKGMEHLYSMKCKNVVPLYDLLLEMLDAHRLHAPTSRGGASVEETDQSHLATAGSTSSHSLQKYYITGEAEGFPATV

[1] = in vivo or in vitro
[2] = system: intact or ovariectomized female rats
[3] = system: streptozotocin diabetic rats; settings: implanted

CC/C(=C(/c1ccc(OCCN(C)C)cc1)c1cccc(O)c1)c1ccccc1 [droloxifene, 3-hydroxytamoxifen]
binding affinity to the estrogen receptor compared to tamoxifen (estrogen receptor): 10-60 fold | carcinogenic or mutagenic effects [1]: devoid of in vivo or in vitro carcinogenic or nutagenic effects

C[C@]12CC[C@H]3[C@@H](CCC4=CC(=O)CC[C@@]43C)[C@@H]1CC[C@@H]2O [testosterone]
insulin resistance [2]: marked insulin resistance | ability of residual insulin to maintain glycemic control [3]: antagonized the ability of residual insulin to maintain glycemic control

CC/C(=C(\c1ccccc1)c1ccc(OCCN(C)C)cc1)c1ccccc1 [tamoxifen]
liver tumors (rats): causes liver tumors in rats
